Where “and” joins values, the source holds several entries; their conditions need not be identical. Equal entries are not always repeated.
Legend:
[1] = target: murine free Hb (Mus musculus, UniProt P01942+P02088); assay: P50 of murine free Hb after incubation with compound (HEMOX analyzer); format: biochemical; conditions: for P50 (Torr) Hb + compound / P50 increase (%) + SD: murine free Hb, compound solution 60 mM
Method: (§1) For the in vitro experiments, ITPP was dissolved in deionized water, pH was adjusted at pH 7 and, for incubation with whole blood, the osmolarity of the ITPP solutions was adjusted with glucose to 270-297 mOsM. Mixtures of hemoglobin and ITPP were measured with a HEMOX analyzer (PD Marketing, London) immediately after mixing. Red blood cells were incubated with ITPP for 1 hour at 37° C. Following incubation, the cells were washed 3 times with Bis-Tris-buffer (pH=7.0) and then used for P50 measurement.

[2] = target: human free Hb (Homo sapiens, UniProt P68871+P69905); assay: P50 of human free Hb after incubation with compound (HEMOX analyzer); format: biochemical; conditions: compound solution 60 mM
Method: as §1

[3] = system: murine whole blood; assay: P50 of murine whole blood after incubation with compound; format: cell-based
Method: as §1

[4] = system: human whole blood; assay: P50 of human whole blood after incubation with compound; format: cell-based; conditions: for P50 (Torr) compound + whole blood / P50 increase (%) + SD: human whole blood
Method: as §1
(§2) ITPP-Ca4Na acts as a powerful effector of hemoglobin shifting the oxygen fixation curves to the right, with respect to the natural effector bisphosphoglycerate. […] In FIG. 6, hemoglobin is incubated (at concentrations up to 100 mM final) with ITPP Ca4Na, for 1 hour at 37° C. and measured by TCS-hemox analyzer for p50 shifts. In FIG. 7, whole human blood was incubated (at concentrations up to 120 mM final) with ITPP Ca4Na, for 1 hour 37° C. and measured by TCS-hemox analyzer for p50 shifts.

[5] = target: porcine free Hb (Sus scrofa, UniProt P01965+P02067); assay: P50 of porcine free Hb after incubation with compound (HEMOX analyzer); format: biochemical; conditions: compound solution 60 mM
Method: as §1

[6] = system: porcine whole blood; assay: P50 of porcine whole blood after incubation with compound; format: cell-based; conditions: compound 60 mM
Method: as §1

[7] = system: hypoxic endothelial cells; assay: ITPP-Ca/Na loaded red blood cells on hypoxic endothelial cells in vitro; format: cell-based
[8] = target: T1, hemoglobin (Homo sapiens, UniProt P68871+P69905); conditions: higher than DPG; cited from earlier work
[9] = system: VEGF mRNA in Lewis Lung carcinoma (LLC) tumors; assay: VEGF mRNA (RT-PCR) in Lewis Lung carcinoma tumors of ITPP drinking mice; format: in vivo, C57BL/6 mice; conditions: LLC tumor-bearing mice, ITPP 20 g/L orally, day 9, versus controls
Method: ITPP, when administered orally, intravenously, or intraperitoneally, inhibits angiogenesis in growing tumors by enhancing the PO2 in the forming tumors. […] Thereafter, all animals received 1×10^6 Lewis Lung carcinoma (LLC) cells, injected in the dorsal cavity. At different time points, the VEGF mRNA were assayed by RT-PCR in the tumors growing in both groups of mice.
There was a difference in the level of mRNA of the VEGF gene in both groups. […] The RT-PCR agarose gel assay of VEGF mRNAs from tumor tissue taken from 2 mice each on day 15 after inoculation of LLC cells (track 1: controls, track 2: ITPP treated animals) and day 30 after inoculation (track 3: control animals, track 4: ITPP treated animals).
Quantification of the gel assays indicated a reduction by a factor of 10,000 of the amount of VEGF mRNAs detected in the tumors of animals having received ITPP, at day 9 and then, while differences remain between treated and untreated animals, they tend to decrease.

[10] = system: circulating RBCs; assay: P50 of circulating RBCs after oral ITPP in drinking water; format: in vivo; conditions: drinking water 20 g/L (0.27 mM, pH ~7.0) ad libitum
Method: ITPP was dissolved in drinking water at a 20 g/L-concentration (0.27 mM, pH ˜7.0.) and offered for drinking ad libitum.

[11] = target: T1, hemoglobin; assay: p50 shift of hemoglobin incubated with ITPP Ca4Na (TCS-hemox analyzer); format: biochemical; conditions: up to 100 mM final, 1 hour at 37° C.
Method: as §2

human free Hb, sequence (P69905 2-142 limits assumed): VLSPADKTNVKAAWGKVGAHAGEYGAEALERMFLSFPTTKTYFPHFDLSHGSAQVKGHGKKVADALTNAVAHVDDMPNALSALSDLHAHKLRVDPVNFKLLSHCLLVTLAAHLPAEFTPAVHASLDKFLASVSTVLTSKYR
human free Hb, sequence (P68871 2-147 limits assumed): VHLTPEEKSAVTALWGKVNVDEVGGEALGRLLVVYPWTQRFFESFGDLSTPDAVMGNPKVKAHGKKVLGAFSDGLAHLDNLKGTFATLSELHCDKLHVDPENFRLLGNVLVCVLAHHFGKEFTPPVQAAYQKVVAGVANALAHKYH
murine free Hb, sequence (P01942 2-142 limits assumed): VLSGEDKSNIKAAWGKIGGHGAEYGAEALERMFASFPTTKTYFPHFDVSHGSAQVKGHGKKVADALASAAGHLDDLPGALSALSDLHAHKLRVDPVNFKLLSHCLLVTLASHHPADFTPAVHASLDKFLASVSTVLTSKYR
murine free Hb, sequence (P02088 2-147 limits assumed): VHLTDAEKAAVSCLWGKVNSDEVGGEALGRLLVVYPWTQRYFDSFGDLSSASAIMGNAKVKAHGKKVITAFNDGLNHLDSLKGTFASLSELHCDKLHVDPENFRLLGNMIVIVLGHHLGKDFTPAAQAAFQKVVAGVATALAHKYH
T1 sequence (P69905 2-142 limits assumed): as the sequence (P69905 2-142 limits assumed) above
T1 sequence (P68871 2-147 limits assumed): as the sequence (P68871 2-147 limits assumed) above
porcine free Hb, sequence (P01965 whole entry): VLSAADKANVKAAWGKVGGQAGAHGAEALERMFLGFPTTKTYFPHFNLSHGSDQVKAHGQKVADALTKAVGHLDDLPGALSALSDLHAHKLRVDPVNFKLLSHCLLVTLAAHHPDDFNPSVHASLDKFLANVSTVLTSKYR
porcine free Hb, sequence (P02067 2-147 limits assumed): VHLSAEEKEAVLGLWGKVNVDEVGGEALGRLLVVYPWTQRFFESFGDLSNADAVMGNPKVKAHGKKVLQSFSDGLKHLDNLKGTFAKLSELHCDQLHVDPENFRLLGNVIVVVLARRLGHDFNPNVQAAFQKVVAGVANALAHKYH

Molecule | P50 (Torr) Hb + compound [1] [Torr] | P50 increase (%) + SD [1] [%] | P50 (Torr) compound + whole blood ([3]; compound 30 mM) [Torr] | P50 increase (%) + SD ([3]; compound 30 mM) [%] | also measured
O=P1(O)OP(=O)(O)O[C@H]2[C@H](O1)[C@@H]1OP(=O)(O)OP(=O)(O)O[C@@H]1[C@H]1OP(=O)(O)OP(=O)(O)O[C@H]21.c1ccncc1.c1ccncc1.c1ccncc1.c1ccncc1.c1ccncc1.c1ccncc1 (racemic) [Compound 4, pyridinium salt of ITPP] | 50.0 | 100 ± 18 | 42.7 | 13 ± 2 | P50 (Torr) Hb + compound [2]: 31.6 Torr; P50 increase (%) + SD [2]: 107 ± 22%; P50 (Torr) compound + whole blood ([4]; compound 30 mM): 24.3 Torr; P50 increase (%) + SD ([4]; compound 30 mM): 10 ± 4%
O=P1([O-])OP(=O)([O-])O[C@H]2[C@H](O1)[C@@H]1OP(=O)([O-])OP(=O)([O-])O[C@@H]1[C@H]1OP(=O)([O-])OP(=O)([O-])O[C@H]21.[Na+].[Na+].[Na+].[Na+].[Na+].[Na+] (racemic) [Compound 5, myo-inositol tripyrophosphate-sodium salt] | 69.7 | 180 ± 25 | – | – | P50 (Torr) Hb + compound [5]: 68.1 Torr; P50 increase (%) + SD [5]: 209 ± 39%; P50 (Torr) Hb + compound [2]: 49.8 Torr; P50 increase (%) + SD [2]: 225 ± 19%; P50 (Torr) compound + whole blood [6]: 44.2 Torr; P50 (Torr) compound + whole blood ([3]; compound 4 mM): 47.4 Torr; P50 (Torr) compound + whole blood ([4]; compound 60 mM): 30.8 Torr
CN(C)C1CCCCC1.CN(C)C1CCCCC1.CN(C)C1CCCCC1.CN(C)C1CCCCC1.CN(C)C1CCCCC1.CN(C)C1CCCCC1.O=P1(O)OP(=O)(O)O[C@H]2[C@H](O1)[C@@H]1OP(=O)(O)OP(=O)(O)O[C@@H]1[C@H]1OP(=O)(O)OP(=O)(O)O[C@H]21 (racemic) [Compound 7, N,N-dimethylcyclohexyl ammonium salt of ITPP] | 45.1 | 81 ± 15 | 52.0 | 30 ± 3 | –
NC1CCCCCC1.NC1CCCCCC1.NC1CCCCCC1.NC1CCCCCC1.NC1CCCCCC1.NC1CCCCCC1.O=P1(O)OP(=O)(O)O[C@H]2[C@H](O1)[C@@H]1OP(=O)(O)OP(=O)(O)O[C@@H]1[C@H]1OP(=O)(O)OP(=O)(O)O[C@H]21 (racemic) [Compound 11, cycloheptyl ammonium salt of ITPP] | 43.8 | 71 ± 3 | 45.5 | 20 ± 2 | –
NC1CCCCCCC1.NC1CCCCCCC1.NC1CCCCCCC1.NC1CCCCCCC1.NC1CCCCCCC1.NC1CCCCCCC1.O=P1(O)OP(=O)(O)O[C@H]2[C@H](O1)[C@@H]1OP(=O)(O)OP(=O)(O)O[C@@H]1[C@H]1OP(=O)(O)OP(=O)(O)O[C@H]21 (racemic) [Compound 12, cyclooctyl ammonium salt of ITPP] | 30.6 | 23 ± 5 | 41.3 | 9 ± 1 | –
C1CNCCN1.C1CNCCN1.C1CNCCN1.O=P1(O)OP(=O)(O)O[C@H]2[C@H](O1)[C@@H]1OP(=O)(O)OP(=O)(O)O[C@@H]1[C@H]1OP(=O)(O)OP(=O)(O)O[C@H]21 (racemic) [Compound 14, tripiperazinium salt of ITPP] | 82.9 | 254 ± 49 | 41.9 | 7 ± 1 | –
O=P1([O-])OP(=O)([O-])O[C@H]2[C@H](O1)[C@@H]1OP(=O)([O-])OP(=O)([O-])O[C@@H]1[C@H]1OP(=O)([O-])OP(=O)([O-])O[C@H]21.[Ca+2].[Ca+2].[Ca+2] (racemic) [Compound 15, myo-inositol tripyrophosphate-calcium salt] | 61.9 | 130 ± 30 | 42.3 | 8 ± 2 | P50 (Torr) Hb + compound [2]: 33.1 Torr; P50 increase (%) + SD [2]: 170% and 170 ± 32%; P50 (Torr) compound + whole blood ([3]; compound 60 mM): 55.3 Torr; P50 (Torr) compound + whole blood ([4]; compound 30 mM): 31.0 Torr; P50 increase (%) + SD ([4]; compound 30 mM): 25% and 25 ± 3%
O=P1([O-])OP(=O)([O-])O[C@H]2[C@H](O1)[C@@H]1OP(=O)([O-])OP(=O)([O-])O[C@@H]1[C@H]1OP(=O)([O-])OP(=O)([O-])O[C@H]21.[Ca+2].[Na+].[Na+].[Na+].[Na+] (racemic) [ITPP-Ca/Na, mixed calcium/sodium salt of inositol-tripyrophosphate] | – | – | – | – | effect on HIF-1 induction, VEGF and angiogenesis (FIG. 1) [7]: suppression of HIF-1 induction, VEGF and angiogenesis
O=P(O)(O)O[C@H]1[C@H](OP(=O)(O)O)[C@@H](OP(=O)(O)O)[C@H](OP(=O)(O)O)[C@@H](OP(=O)(O)O)[C@H]1OP(=O)(O)O [IHP, inositol hexaphosphate] | – | – | – | – | affinity to hemoglobin relative to DPG [8]: 1000 fold
O=P1(O)OC2C3OP(=O)(O)OP(=O)(O)OC3C3OP(=O)(O)OP(=O)(O)OC3C2OP(=O)(O)O1 (stereo not drawn) [ITPP, inositol-tripyrophosphate] | – | – | – | – | P50 shift to higher PO2 ([1]; murine hemoglobin, maximum observed): up to 250%; reduction factor of the amount of VEGF mRNAs detected in the tumors [9]: 10,000; shift of the P50 value of circulating RBCs [10]: significant shift; P50 shift to higher PO2 ([3]; maximum observed): up to 40%
O=P1([O-])OC2C3OP(=O)([O-])OP(=O)([O-])OC3C3OP(=O)([O-])OP(=O)([O-])OC3C2OP(=O)([O-])O1.[Ca+2].[Na+].[Na+].[Na+].[Na+] (stereo not drawn) [ITPP-Ca4Na, monocalcium tetrasodium myo-inositol 1,6:2,3:4,5 trispyrophosphate] | – | – | – | – | p50 values of hemoglobin (FIG. 6) [11]: increase with concentration; p50 values of whole human blood (FIG. 7) ([4]; up to 120 mM final, 1 hour 37° C.): increase with concentration
piperazinium salt of ITPP [Compound 13] | 67.7 | 189 ± 43 | 41.7 | 10 ± 2 | –

— US7745423B2, “Calcium/sodium salt of inositol tripyrophosphate as an allosteric effector of hemoglobin” (NormOxys, Inc, priority 2004, dated 2010)
